{"source": "patent US20080254155A1", "about": "“Use of Ginkgo Biloba Extract in Preparation of a Composition for Lowering Cholesterol” (SHANGHAI BIOCHIP CO., LTD, priority 2005, published 2008)", "test_system": "HepG2 cells", "experiment": "Cellular cholesterol in HepG2 cells (cholesterol test kit)", "type": "cell-based, human", "conditions": "HepG2, 1 μM lovastatin, 6-hr culture", "procedure": "2) Cell Culture and Treatment • (1) Cell Source: HepG2 ATCC • (2) Condition of Culture • Medium: MEM (Minimum essential medium)+10% FBS • Incubation: 37° C., 5% CO2 • Passage and Collection: 0.05% trypsin+0.02% EDTA • (3) Cell Treatment:\nCells were cultured in petri dishes of φ×10 cm (falcon) and grown to the desired proliferation, then detached and transferred to a 6-well plate (falcon). The cells were allowed to adhere and proliferate to the desired density (about 60%-70% confluence), and then treated and grouped as indicated in the table below.\nIn order to minimize the interference from the cytokines and lipids in serum without sacrificing the growth, the medium was replaced with MEM+2% FBS during treatment.\nFor every batch of cells, each treatment was repeated in 6 replicates. The cells were treated at different time points and collected at the same time.\nThe cholesterol test kit from Shanghai JieMen Biotechnology Joint-Corporate was used in accordance to the manufacturer's instruction.", "data": [{"compound": "CC[C@H](C)C(=O)O[C@H]1C[C@@H](C)C=C2C=C[C@H](C)[C@H](CC[C@@H]3C[C@@H](O)CC(=O)O3)[C@H]21", "note": "[Positive Control, lovastatin]", "values": [{"measurement": "Cellular cholesterol", "result": "34.23 ± 2.38", "unit": "μg/mg protein"}]}]}
